Reference: patent US20080107727A1, “Multiple Unit Oral Sustained Release Preparation and Production Method Thereof” (priority 2005, published 2008)

Experiment: Gastrointestinal absorption of imidafenacin in rats, in-situ loop technique
Assay type: in vivo, Male Wistar rats
Conditions: rat in-situ loop, 0.2 mL of 500 μg/mL isotonic solution, after 1 hour
Experimental: In designing oral sustained release preparations of imidafenacin, it is necessary to know the absorption properties of imidafenacin in the gastrointestinal tract. We therefore examined the gastrointestinal absorption properties of imidafenacin in rats using the in-situ loop technique. The specific procedures were as follows: Male Wistar rats (aged 7 to 9 weeks) were dissected under anesthesia with pentobarbital sodium and the common bile duct was ligated. Loops were prepared from the stomach, duodenum, jejunum, ileum and colon. 0.2 mL each of an isotonic solution (500 μg/mL) of imidafenacin was injected into the loops in […]. After 1 hour, the lumen of the loops was washed sequentially with water and 0.01 mol/L hydrochloric acid and the wash was collected from each loop. The concentration of imidafenacin in the wash was determined by high performance liquid chromatography. The standard curve was determined by applying the least squares method to the ratio of the peak areas between the imidafenacin concentration for a similarly treated standard specimen and the concentration of internal standard of imidafenacin determined by chromatography. The concentration of imidafenacin in the wash for a specimen was determined by substituting the ratio of the peak area into the standard curve. The absorption of imidafenacin for each loop was calculated by the equations (1) and (2) below. The results are shown in FIG. 5. % Remaining imidafenacin in a loop=(Conc. of imidafenacin in the wash for the loop)×25 (1) % Absorption of imidafenacin in a loop=100-% Remaining imidafenacin in that loop (2)

absorption of imidafenacin in colon loop: Some absorption
absorption of imidafenacin in small intestine loops (duodenum, jejunum, ileum): effectively absorbed
absorption of imidafenacin in stomach loop: less significant
Structure (SMILES): Cc1nccn1CCC(C(N)=O)(c1ccccc1)c1ccccc1 [imidafenacin, 4-(2-methyl-1-imidazolyl)-2,2-diphenylbutylamide]
